According to PMC2941209 (Synapse (New York, N.Y.), 2010):
“And” between values parts separate entries of the source, which are not always exact repeats. Identical values can stand only once. Counter-ions that a name gives are not always drawn.

Tests used:
SERT [1] = target: T1, SERT (Rattus norvegicus, UniProt P31652); assay: [3H]5-HT release assay; details: for Emax [3H]5-HT release, 15 μM EG-1-149 / Emax [3H]5-HT release, NO EG-1-149: ±SD (n=6); for EMAX substrate-induced [3H]5-HT release, CONTROL: substrate alone (control), 100% = release by 100 μM tyramine, ±SD
T1 sequence (P31652 whole entry): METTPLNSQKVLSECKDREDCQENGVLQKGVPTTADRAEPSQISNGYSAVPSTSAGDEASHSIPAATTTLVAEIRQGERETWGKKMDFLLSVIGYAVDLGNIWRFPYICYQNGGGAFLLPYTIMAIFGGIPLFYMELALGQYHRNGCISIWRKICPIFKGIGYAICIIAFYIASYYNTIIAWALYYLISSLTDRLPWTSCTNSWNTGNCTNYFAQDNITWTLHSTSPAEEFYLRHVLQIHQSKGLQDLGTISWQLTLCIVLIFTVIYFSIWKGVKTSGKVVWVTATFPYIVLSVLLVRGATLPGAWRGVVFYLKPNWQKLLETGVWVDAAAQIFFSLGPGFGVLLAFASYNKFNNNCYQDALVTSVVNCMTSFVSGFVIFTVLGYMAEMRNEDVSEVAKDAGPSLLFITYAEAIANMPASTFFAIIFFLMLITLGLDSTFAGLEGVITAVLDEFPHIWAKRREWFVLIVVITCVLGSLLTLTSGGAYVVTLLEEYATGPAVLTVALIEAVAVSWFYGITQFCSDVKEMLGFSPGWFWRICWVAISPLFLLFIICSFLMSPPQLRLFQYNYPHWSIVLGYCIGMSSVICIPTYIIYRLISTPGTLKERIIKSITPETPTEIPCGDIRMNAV

DAT = details: read-out: IC50 reuptake inhibition, DAT; ref Greiner et al., 2003; cited from earlier work
SERT [2] = target: T1, SERT; assay: [3H]5-HT uptake inhibition assay; format: biochemical
SERT [3] = target: T1, SERT; assay: biochemical
[4] = 1 μM test compound, substrate MDMA

For `CNC(C)Cc1ccc2c(c1)OCO2` (racemic) [(±)-MDMA], which EC50 (SERT [1]) is on record?
Its EC50 is 88 ± 10 nM.

And the Emax (SERT [1]; read-out: EMAX substrate-induced [3H]5-HT release, CONTROL)?
The Emax was 105%.

What does the source list for `CC(N)Cc1cccc(C(F)(F)F)c1` (single isomer, unassigned; (+)) [(+)-Norfenfluramine]?
Emax [3H]5-HT release, 15 μM EG-1-149 (SERT [1]; release time 5 min): 81 ± 3 %I; Emax [3H]5-HT release, 15 μM EG-1-149 (SERT [1]; release time 5 min, listed as (+)-norfenfluramine): 81±3 %I; Emax [3H]5-HT release, NO EG-1-149 (SERT [1]; release time 5 min): 114 ± 8 %I; Emax [3H]5-HT release, 15 μM EG-1-149 (SERT [1]; release time 15 min): 97 ± 4 %I; Emax [3H]5-HT release, 15 μM EG-1-149 (SERT [1]; release time 15 min, listed as (+)-norfenfluramine): 97±4 %I; Emax [3H]5-HT release, NO EG-1-149 (SERT [1]; release time 15 min): 111 ± 5 %I; EMAX substrate-induced [3H]5-HT release, CONTROL (SERT [1]): 113±6%

With `NCCc1c[nH]c2ccc(O)cc12` [5-HT] as the molecule, how does the “EMAX substrate-induced [3H]5-HT release, CONTROL” value (SERT [1]) read?
The value was 85±1%.

For `Brc1ccc(CN2CCC(CCOC(c3ccccc3)c3ccccc3)CC2)cc1` [EG-1-149, 4-(2-(Benzhydryloxy)ethyl)-1-(4-bromobenzyl)piperidine oxalate], which IC50 (DAT) is on record?
Its IC50 is 5.1 ± 0.4 nM.

And the IC50 (SERT [2])?
Its IC50 is 1.76 µM.

What about the Ki (SERT [3]) of the same molecule?
The Ki was 713 nM and 1180 nM and 4820 nM and 2900 nM and 1770 nM.

With `Cc1cc(NC(=O)Nc2ccc3c(ccn3C)c2)sn1` [SB204741, N-(1-Methyl-1H-indol-5-yl)-N′-(3-methylisothiazol-5-yl)urea] as the molecule, how does the IC50 (SERT [2]) read?
Its IC50 is 38 µM.

What about the “effect on EMAX of MDMA-induced [3H]5-HT release” value (SERT [1]; [4]) of the same molecule?
The value was “without altering the EMAX values”.

And the “rightward shift of the MDMA dose-response curve ([3H]5-HT release)” value (SERT [1]; [4])?
The value was 3–4 fold.

Which “EMAX substrate-induced [3H]5-HT release, CONTROL” value (SERT [1]) does the source give for `Clc1cccc(N2CCNCC2)c1` [mCPP, meta-chlorophenylpiperazine] here?
Its value is 94±3% and 91±1%.
